# From PMC10025480 (Frontiers in Pharmacology, 2023)
# How the values were obtained:
# [1] = tested on: CF-HBE cells; assay: Short-circuit current (ISC), IL-13 pre-treated CF-HBE; format: cell-based, human
# Experimental: HBE cultured at air-liquid interface (ALI) for 14–21 days were mounted in Ussing chambers in symmetrical Ringers solution containing (in mM): 120 NaCl, 25 NaHCO3, 3.3 KH2PO4, 0.8 K2HPO4, 1.2 CaCl2, 1.2 MgCl2, and 10 glucose, and voltage clamped as described above. In some studies, HBE were pre-treated with IL-13 (10 ng/mL; Peprotech, United Kingdom) for 48 h to increase TMEM16A expression levels ([Caputo et al., 2008]). Amiloride (10 μM; apical) was used to block the spontaneous, ENaC-mediated current, whilst UTP (10 μM; apical) and forskolin (10 μM; apical and basolateral) were added to the bath solutions to activate Ca^2+ and cAMP-dependent anion secretory responses, respectively. Inh172 (30 μM; apical and basolateral) was also used to inhibit CFTR function. The TMEM16A blockers were added to the apical side of the Ussing chambers to evaluate effects on each of these currents.
# [2] = tested on: HBE cells; assay: Goblet cell formation (MUC5AC+ and acetylated α-tubulin+ stained area) in HBE; format: cell-based, human; conditions: for acetylated α-tubulin (ciliated) stained area / MUC5AC+ stained area (goblet cells): 96 h; for MUC5AC+ stained area (goblet cells): IL-13 naïve and IL-13 treated cultures
# Experimental: HBE cultured at air-liquid interface for 14–21 days were treated with TMEM16A blockers ± IL-13 (10 ng/mL; basolateral) for 96 h to establish any effects on goblet cell numbers. At 48h, LDH levels in the media were measured according to the manufacturer’s instructions (Roche Cytotoxicity Detection Kit #11644793001), and blockers, IL-13 and media were refreshed. At 96 h, wells were fixed in 4% formaldehyde and were stained with antibodies to MUC5AC (45M1; Thermo Fisher, United Kingdom) and acetylated α-tubulin (6-11B-1; Sigma, United Kingdom) as previously described ([Danahay et al., 2015]; [Danahay et al., 2020b]) with secondary antibodies to enable fluorescence detection of both proteins (Alexa Fluor; Thermo Fisher, United Kingdom). The MUC5AC^+ stained area was visualised using a Zeiss Axiovert epifluorescence microscope with a motorised stage that was used to image the same 9 regions of interest on each insert. ImageJ was used to quantify the MUC5AC^+ and stained area per insert which was normalised to the vehicle control group. The process was repeated for the acetylated α-tubulin^+ stained area.
# [3] = tested on: panel of 22 functional GPCR assays; assay: SelectScreen cell-based GPCR assay panel; conditions: 10 µM
# Text: Profiling of compound activity versus a select panel of diverse GPCRs was undertaken by ThermoFisher Scientific (United Kingdom) via their SelectScreen cell-based GPCR assay panel. Detailed experimental protocols on this assay platform can be found at (https://www.thermofisher.com/content/dam/LifeTech/migration/en/filelibrary/services/discovery-research/pdfs.par.36410.file.dat/sscg-brochure.pdf). Briefly these assays detect agonist or antagonist activity using cell lines with the GPCR of interest over-expressed, driving the expression of a reporter gene encompassing a mammalian-optimized Beta-lactamase. Test compounds are incubated with the specific cell lines at the defined final concentration for 5 or 16 h (depending on the cell line specifics) before quantification of effect.
# [4] = tested on: human vascular smooth muscle preparations; conditions: ref Papp et al., 2019; cited from earlier work
# [5] = set-up: method as in Papp et al., 2019; conditions: PAH patients; ref Papp et al., 2019; cited from earlier work
# [6] = target: T1, hTMEM16Aacd (Homo sapiens, UniProt Q5XXA6); assay: Whole-cell patch clamp (QPatch), HEK-hTMEM16Aacd cells; format: cell-based
# T1 construct: expressed in transfected cells; host or cells: HEK cells
# T1 sequence (Q5XXA6 1-986): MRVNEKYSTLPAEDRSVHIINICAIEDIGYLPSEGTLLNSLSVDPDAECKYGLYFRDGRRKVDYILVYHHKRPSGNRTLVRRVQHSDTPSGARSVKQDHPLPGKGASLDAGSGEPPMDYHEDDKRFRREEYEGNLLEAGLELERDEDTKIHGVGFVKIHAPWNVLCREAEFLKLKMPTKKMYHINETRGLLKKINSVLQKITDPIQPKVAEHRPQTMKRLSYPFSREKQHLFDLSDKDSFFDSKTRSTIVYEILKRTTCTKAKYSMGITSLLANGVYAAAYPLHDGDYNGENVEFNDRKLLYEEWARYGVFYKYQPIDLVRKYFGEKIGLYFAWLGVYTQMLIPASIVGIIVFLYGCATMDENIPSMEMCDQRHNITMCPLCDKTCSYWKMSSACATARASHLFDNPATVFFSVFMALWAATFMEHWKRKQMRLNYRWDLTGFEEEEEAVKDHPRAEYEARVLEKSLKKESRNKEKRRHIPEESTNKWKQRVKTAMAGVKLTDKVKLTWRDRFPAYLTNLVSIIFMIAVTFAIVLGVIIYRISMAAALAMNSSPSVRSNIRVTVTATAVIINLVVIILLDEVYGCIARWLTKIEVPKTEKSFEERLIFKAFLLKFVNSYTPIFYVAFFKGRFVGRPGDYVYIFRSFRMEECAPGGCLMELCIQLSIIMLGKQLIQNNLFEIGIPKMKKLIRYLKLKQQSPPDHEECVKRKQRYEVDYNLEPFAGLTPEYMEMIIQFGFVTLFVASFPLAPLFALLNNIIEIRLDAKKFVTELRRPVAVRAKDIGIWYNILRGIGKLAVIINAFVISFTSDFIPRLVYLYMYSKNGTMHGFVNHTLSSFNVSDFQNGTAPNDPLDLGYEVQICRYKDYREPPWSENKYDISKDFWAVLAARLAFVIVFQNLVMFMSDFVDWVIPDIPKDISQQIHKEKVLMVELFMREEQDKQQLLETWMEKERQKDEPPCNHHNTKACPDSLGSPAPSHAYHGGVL
# Experimental: Whole-cell voltage-clamp recordings from FRT-hTMEM16Aabc, HEK-hTMEM16Aacd, and HEK293 cells were made using the QPatch planar patch clamp system as described previously ([Bill et al., 2015]; [Danahay et al, 2020a]). TMEM16A currents were assessed using chloride selective solutions with calculated free [Ca^2+]i tightly buffered at either 415 or 0 nM. Current rectification ratios were calculated by dividing the magnitude of the outward current at +90 mV by the magnitude of the inward current at −90 mV.
# [7] = tested on: HEK293 cells; assay: Whole-cell patch clamp (QPatch), parental HEK cells lacking TMEM16A; format: cell-based; conditions: compared with HEK-TMEM16Aacd cells at 0 nM [Ca2+]i
# Experimental: Current rectification ratios were calculated by dividing the magnitude of the outward current at +90 mV by the magnitude of the inward current at −90 mV.
# [8] = tested on: human bronchial smooth muscle; conditions: cited from earlier work
# [9] = after amiloride, 5 min pre-treatment
Compound,direct effect on amiloride-insensitive baseline ISC [1],"UTP-stimulated ISC AUC [1, 9]","UTP-stimulated peak increase in ISC [1, 9]",acetylated α-tubulin (ciliated) stained area [2],MUC5AC+ stained area (goblet cells) [2],number of GPCRs inhibited by ≥ 50% [3],effect on vascular smooth muscle in vitro [4],pulmonary artery pressure [5],"effect on TMEM16Aacd currents ([6]; HEK cells, [Ca2+]i clamped at 415 nM, bell shaped concentration response)","EC50 ([6]; HEK-TMEM16Aacd cells, [Ca2+]i clamped to 0 nM (TMEM16A not activated), read-out: EC50, concentration-dependent increase in current) [nM]",reversal potential of induced current ([6]; [Ca2+]i clamped to 0 nM),effect on currents in parental HEK cell line [7],"immediate, transient increase in ISC ([1]; 10 µM, vehicle 0.5 ± 0.2) [µAcm^-2]","change to lower baseline ISC than before compound addition ([1]; 10 µM, vehicle −0.3 ± 0.1) [µAcm^-2]","air-liquid interface integrity ([2]; by 48 h after initiating treatment, media on mucosal surface)","relaxation of human bronchial smooth muscle ([8]; ref Danahay et al., 2020b)","effect on freshly isolated human bronchial smooth muscle ([8]; ref Miner et al., 2019)"
CCc1oc2ccccc2c1C(=O)c1cc(Br)c(O)c(Br)c1 [benzbromarone],Neither Ani9 nor benzbromarone had any direct effect,attenuated,attenuated,significantly attenuated,significantly attenuated,6,relax,paradoxical increase,,,,,,,,,
O=C(Nc1ccc([N+](=O)[O-])cc1Cl)c1cc(Cl)ccc1O [niclosamide],,,attenuated,significantly attenuated,significantly attenuated,11,,,enhancement of currents at low µM,2700 ± 300,approximately −50 mV,Quantitatively similar effects,6.8 ± 1.0,−0.9 ± 0.2,compromised,confirmed,relax
